Results from patent US8518973B2, “Compounds having 4-pyridylalkylthio group as a substituent” (Santen Pharmaceutical Co., Ltd., priority 2003, dated 2013).

system: VEGF-induced HUVEC growth; experiment: VEGF-induced HUVEC growth reaction evaluation system (cell growth inhibitory action test); assay type: cell-based; details: Homo sapiens, 72 h, 20 μg/ml test compound solution added 5 μl per well (100 μl), VEGF solution 400 ng/ml 5 μl per well, three days, absorbance at 450 nm, read-out: Cell growth inhibition rate (%)
Protocol: Cell growth inhibitory action tests were carried out using a VEGF-induced HUVEC growth reaction evaluation system (HUVEC stands for human umbilical vein endothelial cells), which is one of widely-used methods of evaluating in vitro angiogenesis inhibitory effects of drugs.
As one of widely-used methods of evaluating angiogenesis inhibitory effects of drugs, a cell growth inhibitory action test using a VEGF-induced HUVEC growth reaction evaluation system was reported in Cancer Res., 59, 99-106(1999). According to the method described in the above-mentioned literature, cell growth inhibitory action tests of the present compounds were carried out, their cell growth inhibition rates were calculated, and angiogenesis inhibitory effects of the present compounds were evaluated using the obtained rates as indexes.
Each test compound was dissolved in dimethyl sulfoxide (hereinafter abbreviated as “DMSO”), and the obtained solution was diluted with commercially available phosphoric acid buffer solution (hereinafter abbreviated as “PBS”) to prepare a 20 μg/ml test compound solution.
HUVEC was suspended in a 0.5% fetal bovine serum (hereinafter abbreviated as “FBS”)-containing F12K medium to prepare a 2×10^4 cells/ml HUVEC suspension.
VEGF was dissolved in 0.1% bovine serum albumin-containing PBS, and the obtained solution was diluted with the 0.5% FBS-containing F12K medium to prepare a 400 ng/ml VEGF solution.
• 1) The HUVEC suspension was inoculated in each amount of 100 μl into each well of a 96-well plate coated with I type collagen (2×10^3 cells per well). • 2) One day after inoculation, the test compound solution was added in an amount of 5 μl per well. • 3) One hour after adding the test compound solution, the VEGF solution was added in an amount of 5 μl per well. • 4) Three days after adding the VEGF solution, cell counting kit-8(Dojin Chemical Co., Ltd.) was added in an amount of 10 μl per well. • 5) After three hours, the above-mentioned plate was attached to an absorptiometer (multi label counter ARVO), and absorbance at 450 nm of each well suspension (hereinafter referred to as “test compound suspension”) was measured. • 6) A test was carried out in the same manner as in 1) to 5) except that 1.0% DMSO was used instead of the test compound solution.
Incubation was carried out under conditions of 37° C., 5% carbon dioxide and 95% air in an incubator throughout the above-mentioned test steps.
Cell growth inhibition rates, which are indexes of angiogenesis inhibitory effects, were calculated by the following calculation equation.

SMILES | inhibition at 20 µg/mL (stock) [%]
O=C(Nc1ccc2c(c1)CCC2)c1ccsc1SCc1ccncc1 [1-287, N-(5-Indanyl)-2-(4-pyridylmethylthio)thiophene-3-carboxamide] | 95
O=C(Nc1ccc(Cl)cc1F)c1cccnc1SCc1ccncc1 [1-69, N-(4-Chloro-2-fluorophenyl)-2-(4-pyridylmethylthio)pyridine-3-carboxamide] | 95
Cc1cc(C)cc(NC(=O)c2sccc2SCc2ccnc(Cl)c2)c1 [1-251, 3-(2-Chloropyridin-4-ylmethylthio)-N-(3,5-dimethylphenyl)thiophene-2-carboxamide] | 77
Cc1cc(C)cc(NC(=O)c2ccsc2SCc2ccncc2)c1 [1-291, N-(3,5-Dimethylphenyl)-2-(4-pyridylmethylthio)thiophene-3-carboxamide] | 100
CCCc1ccc(NC(=O)c2cccnc2SCc2ccncc2)cc1 [1-49, N-(4-n-Propylphenyl)-2-(4-pyridylmethylthio)pyridine-3-carboxamide] | 100
O=C(Nc1cnc2ccccc2c1)c1ccccc1SCc1ccncc1 [1-95, 2-(4-Pyridylmethylthio)-N-(3-quinolyl)benzamide] | 100
O=C(Nc1ccc(OC(F)(F)F)cc1)c1cccnc1SCc1ccnc(F)c1 [1-214, 2-(2-Fluoropyridin-4-ylmethylthio)-N-(4-trifluoromethoxyphenyl)pyridine-3-carboxamide] | 92
Cc1cccc(NC(=O)c2ccsc2SCc2ccncc2)c1 [1-285, N-(3-Methylphenyl)-2-(4-pyridylmethylthio)thiophene-3-carboxamide] | 100
COc1cc(OC)c(NC(=O)c2cccnc2SCc2ccncc2)cc1Cl [1-85, N-(5-Chloro-2,4-dimethoxyphenyl)-2-(4-pyridylmethylthio)pyridine-3-carboxamide] | 95
O=C(Nc1cccc(C(F)(F)F)c1)c1sccc1SCc1ccncc1 [1-276, 3-(4-Pyridylmethylthio)-N-(3-trifluoromethylphenyl)thiophene-2-carboxamide] | 100
CC(C)c1cccc(NC(=O)c2cccnc2SCc2cc[n+]([O-])cc2)c1 [4-6, N-(3-Isopropylphenyl)-2-(1-oxopyridin-4-ylmethylthio)pyridine-3-carboxamide] | 100
O=C(Nc1ccc(F)c(F)c1)c1sccc1SCc1ccncc1 [1-269, N-(3,4-Difluorophenyl)-3-(4-pyridylmethylthio)thiophene-2-carboxamide] | 53
CC(Sc1ncccc1C(=O)Nc1cccc(Cl)c1)c1ccncc1 (stereo not drawn) [5-2, N-(3-Chlorophenyl)-2-[1-(4-pyridyl)ethylthio]pyridine-3-carboxamide] | 96
Cc1ccc(NC(=O)c2sccc2SCc2ccncc2)cc1C [1-253, N-(3,4-Dimethylphenyl)-3-(4-pyridylmethylthio)thiophene-2-carboxamide] | 100
Cc1cc(NC(=O)c2cccnc2SCc2ccncc2)ccc1Cl [1-79, N-(4-Chloro-3-methylphenyl)-2-(4-pyridylmethylthio)pyridine-3-carboxamide] | 100
O=C(Nc1cc2ccccc2cn1)c1sccc1SCc1ccncc1 [1-274, N-(3-Isoquinolyl)-3-(4-pyridylmethylthio)thiophene-2-carboxamide] | 95
O=C(Nc1ccc(F)cc1F)c1cccnc1SCc1ccncc1 [1-70, N-(2,4-Difluorophenyl)-2-(4-pyridylmethylthio)pyridine-3-carboxamide] | 58
CCOC(=O)Cc1ccc(NC(=O)c2cccnc2SCc2ccncc2)cc1 [1-61, N-(4-Ethoxycarbonylmethylphenyl)-2-(4-pyridylmethylthio)pyridine-3-carboxamide] | 65
CC(C)Oc1ccc(NC(=O)c2cccnc2SCc2ccncc2)cc1 [1-55, N-(4-Isopropoxyphenyl)-2-(4-pyridylmethylthio)pyridine-3-carboxamide] | 100
CCCc1ccc(NC(=O)c2sccc2SCc2ccncc2)cc1 [1-270, N-(4-n-Propylphenyl)-3-(4-pyridylmethylthio)thiophene-2-carboxamide] | 99

SMILES | inhibition at 20 µg/mL (stock) [%]
O=C(Nc1ccc(OC(F)(F)F)cc1)c1cccnc1SCc1ccnc(Cl)c1 [1-227, 2-(2-Chloropyridin-4-ylmethylthio)-N-(4-trifluoromethoxyphenyl)pyridine-3-carboxamide] | 60
O=C(Nc1ccc(F)c(Cl)c1)c1cccnc1SCc1ccncc1 [1-75, N-(3-Chloro-4-fluorophenyl)-2-(4-pyridylmethylthio)pyridine-3-carboxamide] | 100
Cc1ccc(NC(=O)c2sccc2SCc2ccncc2)cc1F [1-248, N-(3-Fluoro-4-methylphenyl)-3-(4-pyridylmethylthio)thiophene-2-carboxamide] | 75
COc1cc(OC)c(NC(=O)c2ccccc2SCc2ccncc2)cc1Cl [1-102, N-(5-Chloro-2,4-dimethoxyphenl)-2-(4-pyridylmethylthio)benzamide] | 55
Cc1cc(C)cc(NC(=O)c2cccnc2SCc2ccnc(C#N)c2)c1 [1-236, 2-(2-Cyanopyridin-4-ylmethylthio)-N-(3,5-dimethylphenyl)pyridine-3-carboxamide] | 100
Cc1cc(C)cc(NC(=O)c2cccnc2SCc2ccncc2Cl)c1 [1-228, 2-(3-Chloropyridin-4-ylmethylthio)-N-(3,5-dimethylphenyl)pyridine-3-carboxamide] | 100
O=C(Nc1ccc(F)c(C(F)(F)F)c1)c1cccnc1SCc1ccncc1 [1-77, N-(4-Fluoro-3-trifluoromethylphenyl)-2-(4-pyridylmethylthio)pyridine-3-carboxamide] | 100
Cc1cc(NC(=O)c2ccccc2SCc2ccncc2)ccc1Br [1-111, N-(4-Bromo-3-methylphenyl)-2-(4-pyridylmethylthio)benzamide] | 100
CCCNC(=O)c1cc(CSc2ncccc2C(=O)Nc2cc(C)cc(C)c2)ccn1 [7-1, N-(3,5-Dimethylphenyl)-2(2-n-propylaminocarbonylpyridin-4-yl-methylthio)pyridine 3 carboxamide] | 100
O=C(Nc1ccc(OC(F)(F)F)cc1)c1sccc1SCc1ccncc1 [1-273, 3-(4-Pyridylmethylthio)-N-(4-trifluoromethoxyphenyl)thiophene-2-carboxamide] | 100
COc1ccc(NC(=O)c2cccnc2SCc2ccncc2)cc1OC [1-72, N-(3,4-Dimethoxyphenyl)-2-(4-pyridylmethylthio)pyridine-3-carboxamide] | 100
CC(C)(C)c1ccc(NC(=O)c2sccc2SCc2ccncc2)cc1 [1-256, N-(4-tert-Butylphenyl)-3-(4-pyridylmethylthio)thiophene-2-carboxamide] | 100
CC(C)Oc1ccc(NC(=O)c2sccc2SCc2ccncc2)cc1 [1-246, N-(4-Isopropoxyphenyl)-3-(4-pyridylmethylthio)thiophene-2-carboxamide] | 76
Cc1cc(C)cc(NC(=O)c2cccnc2SCc2ccnc(C(=O)O)c2)c1 [6-1, 2-(2-Carboxypyridin-4-ylmethylthio)-N-(3,5-dimethylphenyl)pyridine-3-carboxamide] | 72
CC(C)c1cccc(NC(=O)c2cccnc2SCc2ccncc2)c1 [1-35, N-(3-Isopropylphenyl)-2-(4-pyridylmethylthio)pyridine-3-carboxamide] | 100
CCCCc1ccc(NC(=O)c2cccnc2SCc2ccncc2)cc1 [1-50, N-(4-n-Butylphenyl)-2-(4-pyridylmethylthio)pyridine-3-carboxamide] | 94
O=C(Nc1ccc(Cl)cc1)c1cccnc1SCc1cc[n+]([O-])cc1 [4-1, N-(4-Chlorophenyl)-2-(1-oxopyridin-4-ylmethylthio)pyridine-3-carb oxamide] | 93
Cc1cc(NC(=O)c2cccnc2SCc2ccncc2)ccc1OC(F)(F)F [1-175, N-(3-Methyl-4-trifluoromethoxyphenyl)-2-(4-pyridylmethylthio)pyridine-3-carboxamide] | 100
O=C(Nc1cnc2ccccc2c1)c1cccnc1SCc1ccncc1 [1-20, 2-(4-Pyridylmethylthio)-N-(3-quinolyl)pyridine-3-carboxamide] | 100
